Assay results published in patent publication US20190040004A1, “NEW COMPOUNDS FOR THE TREATMENT AND/OR PREVENTION OF PARASITIC DISEASES AND METHOD OF PRODUCTION OF THEREOF” (INSTITUT DE RECHERCHE POUR LE DEVELOPPEMENT (I.R.D.), priority 2013, published 2019).
Entries after “also recorded” stand apart in the source; their conditions may differ. Read-outs that look alike come from different tables or passages of the source.

Key:
[1] = test system: T. gondii (GFP expressing parasites) in HFF; experiment: T. gondii proliferation in human foreskin fibroblasts; assay type: cell-based, Toxoplasma gondii; settings: for IC50: 24 h
Protocol: To assess the drug activity on toxoplasma proliferation, human foreskin fibroblasts (HFF) were infected with GFP expressing parasites for 30 mns (Striepen et al., Mol Biochem Parasitol. 1998, 92(2):325-38). Cells were then washed and drugs added at various concentrations ranging from 0.1 to 10 uM. After 24 h, cells were washed and fixed (PBS-formaldehyde 2%) and nucleus stained with Hoechst 33258 (2 μg/ml). The number of infected cells i.e cells harbouring a parasitophorous vacuole and the number of parasites per vacuole were determined using an Olympus ScanR microscope (Olympus).
(§1) Antiparasitic activity of a compound is represented by ICo50, which is calculated with Prism software (Prism4 for MacOSX Version 5.0b, December 2008). The cytoxicity of a compound against the host cells of L. infantum and T. gondii, such as THP-1 or HFF cells, was determined with a MTT assay, according to previously described protocol (Sereno et al., Antimicrob Agents Chemother. 2001, 45(4):1168-73). THP-1 is derived from the peripheral blood ofa human with acute monocytic leukemia.

HFF cells = experiment: MTT cytotoxicity on HFF host cells; assay type: cell-based
Protocol: as §1

THP-1 cells = experiment: MTT cytotoxicity on THP-1 host cells; assay type: cell-based; settings: for THP-1 LD50: human
Protocol: as §1

[2] = test system: T1, HDAC activity from HELA nuclear extract; experiment: Fluorimetric HDAC assay, HeLa nuclear extract; assay type: biochemical, human
T1 construct: HELA Nuclear extracts IC50; other: HeLa nuclear extract, fluorimetric HDAC kit; […]
Protocol: (§2) HDAC inhibitory activity was determined by a fluorimetric HDAC assay kit (Active-motif, Belgium), according to manufacturer's instructions. […] Fluorogenic substrate (10 μL) was added, reaction was allowed to proceed for 30 min at room temperature, then stopped by the addition of a developer containing Tichostatin A.

[3] = test system: Leishmania infantum luciferase expressing strain (MHOM/MA/ITMAP269); experiment: microbe, parasite or virus in culture; assay type: cell-based; settings: for IC50: Leishmania infantum, read-out: L. infantum IC50
Source text: THP-1 is derived from the peripheral blood ofa human with acute monocytic leukemia.

recombinant HDAC6 = target: T2, recombinant HDAC6 (Homo sapiens, UniProt Q9UBN7); experiment: Recombinant HDAC6 inhibition; assay type: biochemical
T2 sequence (Q9UBN7 1-1215): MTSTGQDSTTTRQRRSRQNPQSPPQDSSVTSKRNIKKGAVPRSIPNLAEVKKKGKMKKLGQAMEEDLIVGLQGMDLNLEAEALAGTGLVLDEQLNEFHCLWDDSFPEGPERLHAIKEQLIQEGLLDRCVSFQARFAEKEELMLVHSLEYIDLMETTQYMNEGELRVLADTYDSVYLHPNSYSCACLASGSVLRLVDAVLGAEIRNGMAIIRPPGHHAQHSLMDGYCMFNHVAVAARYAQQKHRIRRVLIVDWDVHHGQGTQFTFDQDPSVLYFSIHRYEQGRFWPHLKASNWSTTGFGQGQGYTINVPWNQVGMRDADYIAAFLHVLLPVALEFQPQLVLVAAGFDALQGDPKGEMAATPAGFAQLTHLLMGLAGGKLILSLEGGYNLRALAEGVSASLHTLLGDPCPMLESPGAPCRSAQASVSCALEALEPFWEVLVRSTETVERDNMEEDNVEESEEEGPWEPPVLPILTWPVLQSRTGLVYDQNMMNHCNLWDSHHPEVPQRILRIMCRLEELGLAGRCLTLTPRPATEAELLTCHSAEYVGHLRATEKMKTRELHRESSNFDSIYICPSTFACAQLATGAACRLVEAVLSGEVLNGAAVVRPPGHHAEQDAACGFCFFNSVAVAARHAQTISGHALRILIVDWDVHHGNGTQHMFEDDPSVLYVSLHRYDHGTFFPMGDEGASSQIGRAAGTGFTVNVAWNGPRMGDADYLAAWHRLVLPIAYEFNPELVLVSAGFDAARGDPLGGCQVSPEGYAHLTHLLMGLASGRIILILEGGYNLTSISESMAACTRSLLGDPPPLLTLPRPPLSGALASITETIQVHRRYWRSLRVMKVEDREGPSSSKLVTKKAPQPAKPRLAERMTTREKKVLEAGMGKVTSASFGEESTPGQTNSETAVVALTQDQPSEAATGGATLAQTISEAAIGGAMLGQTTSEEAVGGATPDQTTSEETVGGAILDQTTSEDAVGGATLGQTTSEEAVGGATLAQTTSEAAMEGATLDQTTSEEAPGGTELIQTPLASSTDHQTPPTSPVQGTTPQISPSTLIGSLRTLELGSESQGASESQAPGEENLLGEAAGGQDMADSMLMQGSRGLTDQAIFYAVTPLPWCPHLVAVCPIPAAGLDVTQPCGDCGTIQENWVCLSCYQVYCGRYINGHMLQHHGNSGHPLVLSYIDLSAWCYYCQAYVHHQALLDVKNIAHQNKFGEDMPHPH

recombinant HDAC 8 = target: T3, recombinant HDAC 8 (Homo sapiens, UniProt Q9BY41); experiment: Recombinant HDAC8 inhibition; assay type: biochemical
T3 sequence (Q9BY41 1-377): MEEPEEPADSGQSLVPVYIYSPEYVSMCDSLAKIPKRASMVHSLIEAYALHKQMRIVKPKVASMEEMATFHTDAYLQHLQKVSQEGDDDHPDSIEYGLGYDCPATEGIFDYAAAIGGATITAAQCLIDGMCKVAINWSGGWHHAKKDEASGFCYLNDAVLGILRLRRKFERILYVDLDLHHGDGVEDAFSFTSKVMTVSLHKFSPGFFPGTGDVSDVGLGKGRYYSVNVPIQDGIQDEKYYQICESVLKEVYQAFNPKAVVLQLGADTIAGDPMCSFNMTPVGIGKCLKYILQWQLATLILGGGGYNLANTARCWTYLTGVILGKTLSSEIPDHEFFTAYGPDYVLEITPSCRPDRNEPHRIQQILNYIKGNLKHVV

[4] = test system: deacetylase activity in total protein extracts of T. gondii; experiment: Deacetylase activity in total protein extracts of T. gondii; assay type: biochemical; settings: 125 nM
[5] = test system: T4, HDAC activity from HELA nuclear extract; experiment: Fluorimetric HDAC assay, HeLa nuclear extract; assay type: biochemical, human; settings: 600 nM; HELA nuclear extract and HDAC-recombinant proteins
T4 construct: other: 600 nM; HELA nuclear extract and HDAC-recombinant proteins
Protocol: as §2

[6] = test system: HDAC activity from HELA nuclear extract; experiment: Fluorimetric HDAC assay, HeLa nuclear extract; assay type: biochemical, human; settings: read-out: IC50 (better HDAC inhibitor among 9 tested compounds)
Protocol: as §2

Babesia = Babesia proliferation; assay type: cell-based
recombinant HDAC3 = recombinant HDAC3 (Homo sapiens, UniProt O15379); experiment: Recombinant HDAC3 inhibition; assay type: biochemical
Chain of recombinant HDAC3 (O15379 whole entry): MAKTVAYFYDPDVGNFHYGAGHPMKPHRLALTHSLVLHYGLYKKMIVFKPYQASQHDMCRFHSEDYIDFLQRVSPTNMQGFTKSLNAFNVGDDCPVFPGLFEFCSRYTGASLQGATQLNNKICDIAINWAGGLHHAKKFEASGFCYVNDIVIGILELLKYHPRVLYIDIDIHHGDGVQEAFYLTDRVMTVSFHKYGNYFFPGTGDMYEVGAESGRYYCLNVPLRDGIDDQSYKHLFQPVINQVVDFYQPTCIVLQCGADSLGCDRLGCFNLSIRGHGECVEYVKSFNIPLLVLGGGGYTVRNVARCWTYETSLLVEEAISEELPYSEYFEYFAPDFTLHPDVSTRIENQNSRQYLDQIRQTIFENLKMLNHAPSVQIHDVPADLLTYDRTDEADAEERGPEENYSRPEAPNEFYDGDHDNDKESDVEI
Chain of recombinant HDAC3 (Q9Y618 395-489 partner limits assumed): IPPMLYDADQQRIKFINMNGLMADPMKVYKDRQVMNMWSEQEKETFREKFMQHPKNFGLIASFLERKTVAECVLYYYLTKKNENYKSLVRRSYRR

[7] = test system: type II Prugniaud parasites; experiment: Type II Prugniaud Toxoplasma proliferation in HFF; assay type: cell-based, Toxoplasma gondii; settings: 0.025 to 0.8 uM, 24 h
Protocol: To compare the activity of compounds according to the invention to that of prior art on toxoplasma proliferation, human foreskin fibroblasts (HFF) were plated in 96-wells plate (10 000 cells per well). Twenty-four hours later, cells were infected with 40 000 parasites, either RH-YFP type I or type II Prugniaud parasites or tachyzoites (kindly provided by B. Striepen, Athens) for one hour. Cells were then washed and drugs (compound D16 of formula
(FIG. 4 and FIG. 5) or compound according to the invention (363) (FIG. 6) added at various concentrations ranging from 0.025 to 0.8 uM. After 24 h, cells were washed and fixed (PBS-formaldehyde 2%) and nucleus stained with Hoechst 33258 (2 μg/ml). The number of infected cells ie. cells harbouring a parasitophorous vacuole and the number of parasites per vacuole was determined using an Olympus ScanR microscope (Olympus).

recombinant HDAC1 = recombinant HDAC1 (Homo sapiens, UniProt Q13547); experiment: Recombinant HDAC1 inhibition; assay type: biochemical
Chain of recombinant HDAC1 (Q13547 whole entry): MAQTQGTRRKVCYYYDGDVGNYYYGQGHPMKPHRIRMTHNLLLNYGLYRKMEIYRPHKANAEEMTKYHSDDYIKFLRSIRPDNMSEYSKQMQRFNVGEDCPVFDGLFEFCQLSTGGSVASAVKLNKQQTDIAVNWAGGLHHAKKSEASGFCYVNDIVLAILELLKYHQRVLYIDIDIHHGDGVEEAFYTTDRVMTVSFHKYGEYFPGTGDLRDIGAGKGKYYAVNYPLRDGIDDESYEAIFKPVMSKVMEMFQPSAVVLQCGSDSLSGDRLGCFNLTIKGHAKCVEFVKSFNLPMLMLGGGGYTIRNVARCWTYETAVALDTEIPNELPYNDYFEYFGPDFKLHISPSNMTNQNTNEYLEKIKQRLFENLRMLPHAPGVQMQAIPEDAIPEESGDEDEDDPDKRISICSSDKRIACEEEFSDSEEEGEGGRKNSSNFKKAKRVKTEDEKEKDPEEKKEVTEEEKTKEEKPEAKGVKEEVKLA
Protocol: FIG. 2 illustrates the capacity of the different compounds of 600 nM to inhibit HDAC activity from HELA nuclear extract and from HDAC-recombinant proteins (HDAC 1, HDAC 3, HDAC 6, HDAC 8).
HDAC inhibitory activity was determined by a fluorimetric HDAC assay kit (Active-motif, Belgium), according to manufacturer's instructions. Briefly, 30 μL of HeLa nuclear extract were mixed with 5 μL of 10× compound to be tested and 10 μL of assay buffer. Fluorogenic substrate (10 μL) was added, reaction was allowed to proceed for 30 min at room temperature, then stopped by the addition of a developer containing Tichostatin A. Fluorescence was monitored after 30 min at excitation and emission wavelengths of 360 and 460 nm, respectively. […].

[8] = Toxoplasma gondii, Fibroblast, read-out: T. gondi IC50, HFF infected, 24 h
[9] = HeLa nuclear extract, fluorimetric HDAC kit, read-out: HELA Nuclear extracts IC50
[10] = text summary of Table 1, less active compounds, read-out: HDAC inhibitory activity against HeLa cell nuclear extract
[11] = Toxoplasma gondii, Fibroblast, HFF infected, read-out: T. gondi IC50

Cc1nc(-c2ccc(C(=O)Nc3ccc(C(=O)NO)cc3)cc2)cs1 [Compound 361]
IC50 [1, 8]: > 10000 nM | IS Selectivity index LD50 (HFF)/IC50 T. gondii (HFF cells): 1.5 | HFF LD50 (HFF cells; human): 25.0 ± 4.0 µM | IS Selectivity index LD50 (THP-1)/IC50 T. gondii (THP-1 cells): 25 | THP-1 LD50 (THP-1 cells): >400 µM | IC50 [2, 9]: 1820 nM | IC50 [2, 10]: ~1000 nM | IC50 [3]: > 60000 nM

COc1cccc(CC(=O)Nc2ccc(C(=O)NO)cc2)c1 [Compound 363]
IC50 (recombinant HDAC6): 45 nM | IS Selectivity index LD50 (HFF)/IC50 T. gondii (HFF cells): 300 | HFF LD50 (HFF cells; human): 105 ± 10.5 µM | IC50 (recombinant HDAC 8): 863 nM | IS Selectivity index LD50 (THP-1)/IC50 T. gondii (THP-1 cells): 10.3 | THP-1 LD50 (THP-1 cells): 3.6 ± 0.5 µM | inhibitory effect on deacetylase activity of T. gondii extracts, in words [4]: strong inhibitory effect | inhibition of T. gondii deacetylase activity ([4]; total protein extracts): 44% | IC50 [2, 9]: 85 nM | inhibition of human HDAC activity (FIG. 2), in words [5]: most potent inhibitor | IC50 [6]: 3600 nM | IC50 (Babesia): ~1000 nM | IC50 (recombinant HDAC3): 160 nM | inhibitory activity on type II Prugniaud parasites proliferation, in words [7]: potent inhibitory effect; also recorded: potent inhibitory activity | IC50 (recombinant HDAC1): 257 nM

O=C(NO)c1ccc(CNC(=O)c2cccc(F)c2)cc1 [Compound 345]
anti-toxoplasma activity, in words [1]: anti-toxoplasma activity | IC50 [1, 11]: < 10000 nM | IC50 ([1]; read-out: T. gondi IC50, HFF infected): 5000 nM | IS Selectivity index LD50 (HFF)/IC50 T. gondii (HFF cells): 11.6 | HFF LD50 (HFF cells; human): 58.3 ± 1.2 µM | IS Selectivity index LD50 (THP-1)/IC50 T. gondii (THP-1 cells): 0.3 | THP-1 LD50 (THP-1 cells): 1.7. +/− 0.5 μM | IC50 [2, 9]: 866 nM | IC50 [6]: 1700 nM | anti-leishmanial activity, in words [3]: anti-leishmanial

O=C(NO)c1ccc(CNS(=O)(=O)c2cccc(F)c2)cc1 [Compound 350]
IC50 [1, 11]: 40000 nM | IS Selectivity index LD50 (HFF)/IC50 T. gondii (HFF cells): 7.5 | HFF LD50 (HFF cells; human): 300.0 ± 50.0 µM | IS Selectivity index LD50 (THP-1)/IC50 T. gondii (THP-1 cells): 10 | THP-1 LD50 (THP-1 cells): >400 µM | IC50 [2, 9]: 8610 nM | IC50 [2, 10]: ~1000 nM

O=C(NO)c1ccccc1 [ST3, hydroxybenzamide, reference compound]
IC50 [1, 8]: > 50000 nM | HFF LD50 (HFF cells; MTT cytotoxicity): >400 µM | IC50 [3]: 29300 nM
